Measured values taken from US3998843A (priority 1972, dated 1976).

How the values were obtained:
[1] = target: T1, acetylcholinesterase (Homo sapiens, UniProt P22303); assay: In vitro anticholinesterase activity, Michel method (acetylcholine substrate, washed human red cells as enzyme source); assay type: biochemical
T1 construct: washed human red cells as the source of acetylcholinesterase; from tissue; host or cells: washed human red cells
Procedure: Screening for anticholinesterase activity was carried out in vitro by the Michel method (J. Lab. Clin. Med 34, 1564, (1949)) using acetylcholine as substrate, washed human red cells as the source of acetylcholinesterase.

[2] = tested on: neuromuscular effects of tubocurarine; assay: Reversal of tubocurarine neuromuscular effects in man (human volunteers; anterior compartment leg muscle twitch); assay type: in vivo; details: for recovery from tubocurarine block: I.V. in saline, 0.6 to 0.8 mg methobromide or 2.5 mg neostigmine (after 1.2 mg atropine)
Procedure: Substantiation for some of these estimates has come from the results of tests carried out in human volunteers. In these experiments contractions of the anterior compartment leg muscles were induced by supramaximal stimulation of the lateral popliteal nerve. After recording a period of control activity, tubocurarine was administered as a slow I.V. infusion until the muscle twitch height was reduced to approximately 50% of control levels. Three minutes later the anticholinesterase was administered (I.V. in saline) and the twitch height monitored until control levels were re-attained.

[3] = tested on: constriction of the pupil in the eye of the mouse; assay: Mouse miosis test of Schneider; assay type: in vivo; details: for Potency, Mouse Miosis: SC, relative to neostigmine (1.0); for in vivo potency versus neostigmine: mouse miosis, in words
Procedure: (§1) In vivo testing was carried out employing the mouse miosis test of Schneider R, J. Pharm. Pharmacol. 22, 298 (1970) in which antiacetylcholinesterases induce constriction of the pupil in the eye of the mouse, and the rat chromodacryorrhoea test of Burgen A.S.V.Brit.J.Pharmacol. 4; 185 (1949) in which antiacetylcholinesterases potentiate the ability of acetylcholine to provoke red tears in rats. Both tests enable the potency and duration of action of antiacetylcholinesterases to be assessed.

[4] = tested on: ability of acetylcholine to provoke red tears in rats; assay: Rat chromodacryorrhoea test of Burgen; assay type: in vivo; details: for Potency, Rat chromod.: IP, relative to neostigmine (1.0); for in vivo potency versus neostigmine: rat chromodacryorrhoea, in words
Procedure: as §1

[5] = tested on: muscarinic activity; assay: Muscarinic activity in animal experimentation; assay type: in vivo
[6] = tested on: tubocurarine-induced muscle blockade; assay: Reversal of tubocurarine-induced muscle blockade in cats (anterior tibialis twitch); assay type: in vivo; details: Felis catus, iv; Cat; injected into the femoral vein; read-out: Dose necessary to produce maximum anti-curare effect
Text: (§2) D-Tubocurarine is used clinically to produce relaxation of skeletal muscles in patients undergoing certain surgical procedures. Following the completion of surgery antiacetylcholinesterases are used to reverse this relaxation. Experiments have been carried out to measure the ability of the compounds of the invention to reverse tubocurarine-induced muscle blockade in rats and cats.
(§3) The method was based on that of Zaimis E, J. Physiol 122, 238 (1953) in which animals were anaesthetised and the left hind limb clamped ridigly in a horizontal position with the tendon of the anterior tibialis muscle attached to a flat spring myograph. Twitches of the anterior tibialis muscle were induced by supramaximal electrical stimulation of the tibial nerve and recorded on a strip recorder. Drugs dissolved in 0.9% saline were injected into the femoral vein. During an experiment the dose of tubocurarine necessary to establish a partial (80 to 90%) blockade of neuromuscular transmission was established an anticholinisterase drugs were subsequently injected at the time of maximum blockade. Recovery achieved after the administration of an antiacetylcholinesterase was compared with the recovery after tubocurarine alone.

[7] = target: T2, bovine erythrocyte acetylcholinesterase (Bos taurus, UniProt P23795); assay: In vitro anticholinesterase test, method of Ellmann (acetylthiocholine substrate, Lineweaver-Burk, Ki); assay type: biochemical; details: for Ki: acetylthiocholine substrate, bovine erythrocyte acetylcholinesterase, competitive conditions; for antiacetylcholinesterase potency versus neostigmine: from Ki, in words
T2 construct: bovine erythrocyte acetylcholinesterase as enzyme; from tissue; host or cells: bovine erythrocytes
T2 sequence (P23795 other isoform, or with tags, fused parts or gaps): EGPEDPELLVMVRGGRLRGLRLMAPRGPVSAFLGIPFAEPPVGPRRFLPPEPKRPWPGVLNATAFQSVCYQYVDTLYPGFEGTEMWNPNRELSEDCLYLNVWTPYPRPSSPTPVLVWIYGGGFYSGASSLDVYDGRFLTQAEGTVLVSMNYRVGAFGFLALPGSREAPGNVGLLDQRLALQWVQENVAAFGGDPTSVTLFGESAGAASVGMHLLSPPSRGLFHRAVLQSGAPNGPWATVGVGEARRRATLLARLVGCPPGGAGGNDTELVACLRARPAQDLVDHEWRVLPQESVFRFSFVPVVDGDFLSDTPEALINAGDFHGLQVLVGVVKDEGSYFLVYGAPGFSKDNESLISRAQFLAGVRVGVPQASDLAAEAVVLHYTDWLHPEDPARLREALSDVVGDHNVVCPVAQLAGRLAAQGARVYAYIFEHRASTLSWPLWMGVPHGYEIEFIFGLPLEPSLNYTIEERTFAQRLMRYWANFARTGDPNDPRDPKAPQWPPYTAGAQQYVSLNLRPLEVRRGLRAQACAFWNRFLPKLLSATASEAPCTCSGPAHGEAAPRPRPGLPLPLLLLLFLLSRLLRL
Procedure: In vitro testing of compounds was carried out by the method of Ellmann, Biochem. Pharmacol. 7, 88 (1961) with acetylthiocholine as substrate and bovine erythrocyte acetylcholinesterase as enzyme. Reaction rates were determined with and without inhibitor under competitive conditions (i.e. the substrate was added before the inhibitor). Results were plotted by the Lineweaver-Burk method and these plots were used to determine inhibitor constants (Ki values).

[8] = Intravenous LD50 in rats and therapeutic ratio; assay type: in vivo, rat; details: for margin of safety when used in man: expected from the rat therapeutic ratios; for selectivity ratio / LD50: rat, in vivo, rats; for selectivity ratio: iv, ratio of LD50 to the dose giving maximum tubocurarine reversal; for LD50: intravenous
Text: The intravenous LD50 has been determined in rats for the three above mentioned drugs and from the results obtained the therapeutic ratios (defined as the ratio of LD50 to the dose giving maximum tubocurarine reversal) have been calculated: […]

[9] = tested on: tubocurarine-induced muscle blockade; assay: Reversal of tubocurarine-induced muscle blockade in rats (anterior tibialis twitch); assay type: in vivo; details: iv; Rat; injected into the femoral vein; read-out: Dose necessary to produce maximum anti-curare effect
Text: as §2, §3

[10] = tested on: acetylcholinesterase; details: after dosage; as thought by some workers; cited from earlier work
[11] = tested on: neuromuscular effects of tubocurarine; details: in the clinic; cited from earlier work

T1 sequence (P22303 other isoform, or with tags, fused parts or gaps): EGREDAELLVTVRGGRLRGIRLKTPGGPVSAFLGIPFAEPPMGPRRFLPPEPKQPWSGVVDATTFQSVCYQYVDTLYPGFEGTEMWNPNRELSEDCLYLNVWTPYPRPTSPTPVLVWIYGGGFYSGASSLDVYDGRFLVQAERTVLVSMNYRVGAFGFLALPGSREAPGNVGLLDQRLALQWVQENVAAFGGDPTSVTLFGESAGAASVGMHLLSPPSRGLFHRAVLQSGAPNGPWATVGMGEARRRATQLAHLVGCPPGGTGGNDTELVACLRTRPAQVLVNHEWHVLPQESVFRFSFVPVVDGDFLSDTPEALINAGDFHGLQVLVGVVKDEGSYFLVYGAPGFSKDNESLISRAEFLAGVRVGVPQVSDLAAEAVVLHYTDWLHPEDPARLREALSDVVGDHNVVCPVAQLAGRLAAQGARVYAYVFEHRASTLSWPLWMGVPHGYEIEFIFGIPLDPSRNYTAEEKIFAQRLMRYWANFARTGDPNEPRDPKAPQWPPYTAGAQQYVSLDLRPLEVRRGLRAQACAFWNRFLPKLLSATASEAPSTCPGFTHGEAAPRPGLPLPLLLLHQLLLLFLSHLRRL

Structure (SMILES): C[N+]1([C@@H]2CCC[C@@H]2c2cccc(O)c2)CCCC1 (relative stereo) [Example 14]
- IC50 [1]: 100 nM

Structure (SMILES): C[N+]1([C@@H]2CCCC[C@H]2c2cccc(O)c2)CCCC1 (relative stereo) [trans-2-(3-hydroxyphenyl)-1-pyrrolidinocyclohexane methiodide, reference compound]
- IC50 [1]: 100000 nM
- activity of cis compound relative to trans compound (fold as active) ([1]; Example 11 versus corresponding trans compound): ~5000 ×

Structure (SMILES): C[N+]1([C@@H]2CCCC[C@@H]2c2cccc(O)c2)CCCC1 (stereo in doubt) [Example 2, cis-2-(3-Hydroxyphenyl)-1-pyrrolidinocyclohexane Methobromide]
- IC50 [1]: 20 nM
- incidence of muscarinic effects ([2]; 0.6 to 0.8 mg I.V. versus 2.5 mg neostigmine with 1.2 mg atropine): less than that produced by the neostigmine/atropine combination
- recovery from tubocurarine block [2]: Prompt recovery

Structure (SMILES): Cc1ccc([C@H]2CCCC[C@H]2[N+]2(C)CCCC2)cc1 (relative stereo) [Example 7]
- IC50 [1]: 1000 nM

Structure (SMILES): C[N+]1([C@@H]2CCCC[C@@H]2c2cc(O)ccc2O)CCCC1 (relative stereo) [Example 16]
- IC50 [1]: 10 nM

Structure (SMILES): CC[N+](CC)(CCNC(=O)C(=O)NCC[N+](CC)(CC)Cc1ccccc1Cl)Cc1ccccc1Cl [Ambenonium, reference compound]
- Potency, Mouse Miosis [3]: 0.06
- Potency, Rat chromod. [4]: 0.03

Structure (SMILES): CC[N+](C)(C)c1cccc(O)c1 [Edrophonium, reference compound]
- Potency, Mouse Miosis [3]: 0.04
- Potency, Rat chromod. [4]: 0.09

Structure (SMILES): Nc1c2c(nc3ccccc13)CCCC2 [Tacrine, reference compound]
- Potency, Mouse Miosis [3]: 0.21
- Potency, Rat chromod. [4]: 0.38

Structure (SMILES): CCCC(=O)Oc1cccc([C@@H]2CCCC[C@@H]2[N+]2(C)CCCC2)c1 (relative stereo) [Example 5, cis-2-(3-Butyryloxyphenyl)-1-pyrrolidinocyclohexane methiodide]
- IC50 [1]: 20 nM

Structure (SMILES): Cc1cccc([C@H]2CCCC[C@H]2[N+]2(C)CCCC2)c1 (relative stereo) [Example 8]
- IC50 [1]: 6000 nM

Structure (SMILES): C[N+]1([C@@H]2CCCC[C@@H]2c2ccccc2)CCCC1 (relative stereo) [Example 1, cis-2-Phenyl-1-pyrrolidinocyclohexane Methiodide]
- muscarinic activity [5]: less muscarinic activity
- IC50 [1]: 200 nM
- ED (maximum effect) [6]: 0.1 mg/kg
- Potency, Mouse Miosis [3]: 1.6
- in vivo potency versus neostigmine [3]: more potent than neostigmine
- Potency, Rat chromod. [4]: 2.0
- in vivo potency versus neostigmine [4]: more potent than neostigmine
- Ki [7]: 7.7 nM
- antiacetylcholinesterase potency versus neostigmine [7]: more potent than neostigmine
- margin of safety when used in man [8]: wide margin of safety
- selectivity ratio [8]: 7.2
- LD50 [8]: 1.5 mg/kg
- ED (maximum effect) [9]: 0.1 mg/kg

Structure (SMILES): C[N+]1([C@@H]2CCCC[C@@H]2c2ccc(Cl)cc2)CCCC1 (relative stereo) [Example 10]
- IC50 [1]: 200 nM

Structure (SMILES): CN(C)C(=O)Oc1ccc[n+](C)c1 [Pyridostigmine, reference compound]
- reversal of enzyme inhibition [10]: relatively slow reversal
- Ki [7]: 4800 nM

Structure (SMILES): CN(C)C(=O)Oc1cccc([N+](C)(C)C)c1 [Neostigmine, reference compound]
- clinical intravenous dose to reverse the neuromuscular effects of tubocurarine [11]: 2.5 to 3.0 mg
- ED (maximum effect) [6]: 0.1 mg/kg
- reversal of enzyme inhibition [10]: relatively slow reversal
- Ki [7]: 30 nM
- LD50 [8]: 0.2 mg/kg
- ED (maximum effect) [9]: 0.1 mg/kg
- recovery from tubocurarine block [2]: Prompt recovery

Structure (SMILES): C[N+]1([C@H]2CCCC[C@H]2c2cccc(O)c2)CCCC1 (stereo in doubt) [Example 11, cis-2-(3-hydroxyphenyl)-1-pyrrolidinocyclohexane methiodide]
- muscarinic activity [5]: less muscarinic activity
- IC50 [1]: 20 nM
- ED (maximum effect) [6]: 0.03 mg/kg
- Potency, Mouse Miosis [3]: 9.6
- in vivo potency versus neostigmine [3]: more potent than neostigmine
- Potency, Rat chromod. [4]: 6.0
- in vivo potency versus neostigmine [4]: more potent than neostigmine
- Ki [7]: 7.3 nM
- antiacetylcholinesterase potency versus neostigmine [7]: more potent than neostigmine
- margin of safety when used in man [8]: wide margin of safety
- selectivity ratio [8]: 15
- LD50 [8]: 0.18 mg/kg
- ED (maximum effect) [9]: 0.025 mg/kg
